Literature values as cited in patent US8871744B2, “Compounds and methods for selectively targeting tumor-associated mucins” (B & G Partyers, LLC, priority 2010, dated 2014).

What was measured:
[1] = tested on: NMuMG cells; conditions: NMuMG cells stimulated with TGF-β1
[2] = tested on: sialomucin complex/rat Muc4; conditions: transfected MEC, activated in fetal calf serum
[3] = tested on: normal mammary epithelial cells

| SMILES | morphological changes associated with EMT [1] | phosphorylation of Smad2 [1] | Muc4 protein expression [2] | epithelial to mesenchymal transition stimulated by TGF-β [3] |
| --- | --- | --- | --- | --- |
| NC(=O)c1ccc(-c2nc(-c3ccc4c(c3)OCO4)c(-c3ccccn3)[nH]2)cc1 [SB431542, 4-[4-(1,3-benzodioxol-5-yl)-5-(2-pyridinyl)-1H-imidazol-2-yl]benzamide] | inhibited | inhibited | – | – |
| CN[C@@H]1C[C@H]2O[C@@](C)([C@@H]1OC)n1c3ccccc3c3c4c(c5c6ccccc6n2c5c31)C(=O)NC4 [staurosporine] | – | – | inhibited | abrogated |
